Key:
[1] = molecular target: T1, CSF-1R (Fms, active) (Homo sapiens, UniProt P07333); experiment: Evaluation of CSF-1R inhibitory activity by TR-FRET method (HTRF KinEASE-TK kit); type: biochemical; details: for IC50: TR-FRET method, phosphorylation of substrate peptide, enzyme 0.05 μg/mL; for inhibitory activities against CSF-1R (in words): statement referring to the Test Examples
T1 construct: purchased Eurofins DiscoverX Products, LLC 14-551
Description: The CSF-1R inhibitory activity of an inventive compound was evaluated by a TR-FRET method using phosphorylation of a substrate peptide of CSF-1R as the index.
The inventive compound was dissolved in dimethyl sulfoxide sterilized by filtration to prepare a 10 μmol/L solution. This solution was dispensed using an acoustic noncontact type nanoliter dispenser (Echo 550, LABCYTE Inc.) such that the final concentrations were within a range from 0.25 to 180 nmol/L.
The assay was performed using an HTRF™ KinEASE™-TK kit (Cisbio Bioassays, 62TK0PEC) by the procedure in accordance with the manual (62TK0PEC rev04(2009)). In the assay, a 384-well plate (Greiner 784076 Black 384 well, Small volume, Greiner Bio-One International GmbH) was used. The enzyme was Fms, active (14-551, Eurofins DiscoverX Products, LLC), which was prepared such that the final concentration was 0.05 μg/mL. TR-FRET measurement (fluorescence of 620 nm and 665 nm) was performed using an HTRF-dedicated microplate reader (K-101, Kyoritsu Radio Service Co., Ltd.). The proportion of the fluorescence quantity at each wavelength as the index of phosphorylation [((quantity of 665 nm fluorescence)/(quantity of 620 nm fluorescence))×10,000] was calculated, and the IC50 value was determined by statistical treatment of the proportion of the fluorescence quantity at each compound concentration.

[2] = tested on: human non-small cell lung cancer cell line NCI-H460; experiment: Antitumor effect in human non-small cell lung cancer cell line NCI-H460 subcutaneously transplanted nude mouse model; type: in vivo, BALB/c-nu/nu mouse; details: 300 mg/kg by gavage
Description: The antitumor effect of the inventive compound was examined using a human non-small cell lung cancer cell line NCI-H460 subcutaneously transplanted nude mouse model.
A cell culture medium was prepared by adding 5.6 mL of Penicillin-Streptomycin (Sigma-Aldrich Co. LLC), 56 mL of FBS (MP Biomedicals), 5.6 mL of 1 mol/L HEPES (Sigma-Aldrich Co. LLC), 5.6 mL of 100 mmol/L Sodium Pyruvate (Life Technologies), and 1.4 g of D-(+)-Glucose (Wako Pure Chemical Industries, Ltd.) to a RPMI1640 culture medium (Sigma-Aldrich Co. LLC). NCI-H460 cells (American Type Culture Collection) were cultured using the prepared culture medium at 37° C. in a 5% CO2 incubator.
The cultured NCI-H460 cells were suspended in PBS. […]
From the day of grouping, the administration solutions were administered by gavage to mice transplanted with cancer cells (15 mice in each group) for the total of 22 days, once a day on the day of the grouping and the last day and twice a day on other days. […] The administration volume was calculated from the last body weight of each.
The tumor volume of each mouse was calculated by the following equation, and the antitumor effect was evaluated using the tumor volume as the index. […]

T1 sequence (P07333 20-972): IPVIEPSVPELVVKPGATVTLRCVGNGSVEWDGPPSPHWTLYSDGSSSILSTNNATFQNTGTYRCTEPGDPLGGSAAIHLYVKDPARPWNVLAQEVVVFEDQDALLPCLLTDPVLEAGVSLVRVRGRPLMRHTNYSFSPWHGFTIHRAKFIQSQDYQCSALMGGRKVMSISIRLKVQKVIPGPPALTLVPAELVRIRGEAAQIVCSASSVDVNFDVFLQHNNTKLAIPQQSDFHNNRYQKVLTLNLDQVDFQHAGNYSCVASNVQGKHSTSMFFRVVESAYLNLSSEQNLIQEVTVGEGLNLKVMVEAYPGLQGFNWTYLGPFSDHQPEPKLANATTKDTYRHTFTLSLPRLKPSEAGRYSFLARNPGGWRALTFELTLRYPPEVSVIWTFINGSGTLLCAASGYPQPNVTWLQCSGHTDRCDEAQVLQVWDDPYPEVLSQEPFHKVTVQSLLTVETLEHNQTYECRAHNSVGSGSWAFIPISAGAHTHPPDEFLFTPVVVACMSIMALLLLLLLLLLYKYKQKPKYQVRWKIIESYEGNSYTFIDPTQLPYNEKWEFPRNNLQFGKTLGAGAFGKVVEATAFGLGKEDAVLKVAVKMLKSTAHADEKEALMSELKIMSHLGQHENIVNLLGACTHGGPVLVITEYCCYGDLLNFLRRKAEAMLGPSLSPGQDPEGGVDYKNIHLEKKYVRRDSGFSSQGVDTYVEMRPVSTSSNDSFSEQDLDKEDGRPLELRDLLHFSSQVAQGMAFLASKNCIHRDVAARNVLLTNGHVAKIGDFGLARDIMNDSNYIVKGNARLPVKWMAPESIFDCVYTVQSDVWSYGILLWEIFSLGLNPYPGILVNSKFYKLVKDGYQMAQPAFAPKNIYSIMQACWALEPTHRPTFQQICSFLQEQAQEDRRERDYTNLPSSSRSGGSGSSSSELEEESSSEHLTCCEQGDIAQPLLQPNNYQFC

| Compound | IC50 [1] [nM] | inhibitory activities against CSF-1R (in words) [1] | Tumor growth inhibition rate (TGI %) ([2]; 22 days, last administration day, NCI-H460 nude mouse) [%] | tumor growth inhibition (in words, FIG. 1) ([2]; tumor volume vs Control group, Student's t test) |
| --- | --- | --- | --- | --- |
| COc1cc(-c2[nH]c3ncc(C#CCCO)cc3c2CN2C3CCC2COC3)ccc1OC1COC1 [Example 6, 4-(3-((3-oxa-8-azabicyclo[3.2.1]octan-8-yl)methyl)-2-(3-methoxy-4-(oxetan-3-yloxy)phenyl)-1H-pyrrolo[2,3-b]pyridin-5-yl)but-3-yn-1-ol] | 10 to 30 | potent inhibitory activities |  |  |
| COc1ccc(-c2[nH]c3ncc(C#CCCO)cc3c2CN2CCOCC2)cc1 [Example 1, 4-(2-(4-methoxyphenyl)-3-(morpholinomethyl)-1H-pyrrolo[2,3-b]pyridin-5-yl)but-3-yn-1-ol] | 30 to 100 | potent inhibitory activities | 61 | significant tumor growth inhibition |
| COc1ccc(-c2[nH]c3ncc(C#CCCO)cc3c2CN2C3CCC2COC3)cc1 [Example 2, 4-(3-((3-oxa-8-azabicyclo[3.2.1]octan-8-yl)methyl)-2-(4-methoxyphenyl)-1H-pyrrolo[2,3-b]pyridin-5-yl)but-3-yn-1-ol] | 10 to 30 | potent inhibitory activities |  |  |
| COc1ccc(-c2[nH]c3ncc(C#CCCO)cc3c2CN2CCOCC2)cc1OC [Example 3, 4-(2-(3,4-dimethoxyphenyl)-3-(morpholinomethyl)-1H-pyrrolo[2,3-b]pyridin-5-yl)but-3-yn-1-ol] | 10 to 30 | potent inhibitory activities |  |  |

The next lines start with results.

| IC50 [1] [nM] | inhibitory activities against CSF-1R (in words) [1] | Compound | Tumor growth inhibition rate (TGI %) ([2]; 22 days, last administration day, NCI-H460 nude mouse) [%] | tumor growth inhibition (in words, FIG. 1) ([2]; tumor volume vs Control group, Student's t test) |
| --- | --- | --- | --- | --- |
| < 10 | potent inhibitory activities | COc1ccc(-c2[nH]c3ncc(C#CCCO)cc3c2CC2CCOCC2)cn1 [Example 9, 4-(2-(6-methoxypyridin-3-yl)-3-((tetrahydro-2H-pyran-4-yl)methyl)-1H-pyrrolo[2,3-b]pyridin-5-yl)but-3-yn-1-ol] |  |  |
| < 10 | potent inhibitory activities | OCCC#Cc1cnc2[nH]c(-c3ccc(N4CCOCC4)cc3)c(CN3CCOCC3)c2c1 [Example 4, 4-(3-(morpholinomethyl)-2-(4-morpholinophenyl)-1H-pyrrolo[2,3-b]pyridin-5-yl)but-3-yn-1-ol] |  |  |
| < 10 | potent inhibitory activities | CC(=O)N1CC=C(c2[nH]c3ncc(C#CCCO)cc3c2CC2CCOCC2)CC1 [Example 8, 1-(4-(5-(4-hydroxybut-1-yn-1-yl)-3-((tetrahydro-2H-pyran-4-yl)methyl)-1H-pyrrolo[2,3-b]pyridin-2-yl)-3,6-dihydropyridin-1(2H)-yl)ethan-1-one] |  |  |
| < 10 | potent inhibitory activities | CC(=O)N1CC=C(c2[nH]c3ncc(C#CCCO)cc3c2CC(C)C)CC1 [Example 7, 1-(4-(5-(4-hydroxybut-1-yn-1-yl)-3-isobutyl-1H-pyrrolo[2,3-b]pyridin-2-yl)-3,6-dihydropyridin-1(2H)-yl)ethan-1-one] |  |  |
| < 10 | potent inhibitory activities | OCCC#Cc1cnc2[nH]c(-c3ccc(N4CCC(O)CC4)cc3)c(CN3CCOCC3)c2c1 [Example 5, 1-(4-(5-(4-hydroxybut-1-yn-1-yl)-3-(morpholinomethyl)-1H-pyrrolo[2,3-b]pyridin-2-yl)phenyl)piperidin-4-ol] |  |  |
